{"source": "patent EP0283369B1", "about": "“Use of Metformin in the preparation of medicaments” (LIPHA, LYONNAISE INDUSTRIELLE PHARMACEUTIQUE, priority 1987, dated 1988)", "key": {"[1]": {"system": "néovascularisation de la cornée du lapin", "assay": "Rabbit cornea neovascularisation model", "assay_type": "in vivo", "settings": "administration in situ", "description": "(§1) • la néovascularisation est le résultat d'une prolifération anormale de cellules endothéliales en particulier dans un environnement hypoxique. • * Cette situation peut être reproduite in vitro en étudiant une telle prolifération sur une culture de cellules endothéliales humaines placées en hypoxie. […] Tout d'abord dans le modèle classique de néovascularisation de la cornée du lapin (M.A. Gimbrone Jr, R.S. Cotran, S.B. Leafman et A.J. Folkman, J. Natl Cancer Inst. 52)."}, "[2]": {"system": "formation de néovaisseaux", "assay": "Neovascularisation after irreversible venous occlusion by argon laser photocoagulation in the miniature pig", "assay_type": "in vivo, porc miniature", "settings": "voie orale, dose journalière de 100 mg, pendant 4 semaines; 6 porcs miniatures", "description": "Pournaras, […] Mbl. Augenheilk. 186 (1985) 471-476). Les expériences ont été partiquées chez le porc miniature. Une occlusion veineuse irréversible a été obtenue par photocoagulation au moyen du laser à Argon. L'angiographie fluorescéinique permet de visualiser 4 semaines après l'occlusion, dans les zones où les vaisseaux de suppléance sont insuffisants en nombre pour assurer la fonction de drainage, […]éovascularisation."}, "[3]": {"system": "modèle d'ischémie périphérique chez le rat", "assay": "Peripheral ischaemia model: microspheres injected into the femoral artery", "assay_type": "in vivo", "settings": "voie intra péritonéale 20 mg/kg", "description": "Dans un modèle d'ischémie périphérique chez le rat, l'injection de microsphères dans l'artère fémorale, provoque l'apparition d'un oedème de la patte ainsi qu'une baisse des capacités motrices de l'animal."}, "métastases pulmonaires": {"system": "métastases pulmonaires", "assay": "Pulmonary metastasis model in the mouse", "assay_type": "in vivo", "settings": "25 et 12,5 mg par voie orale; souris"}, "[4]": {"system": "endothélium en culture sur sa matrice extracellulaire", "assay": "Penetration of cancer cells through cultured endothelium on its extracellular matrix", "assay_type": "cell-based", "settings": "10⁻⁴ - 10⁻⁵ M; in vitro"}, "artérioles terminales": {"system": "artérioles terminales", "assay": "Skin window in the awake hamster: spontaneous microvascular vasomotion", "assay_type": "in vivo", "settings": "2 mg/100 g par voie intraveineuse; hamster éveillé; controls: une par minute", "description": "La fenêtre est éclairée par transmission, on observe le lit capillaire au microscope trioculaire. L'image est transformée en vidéosignal par une caméra. L'enregistrement du diamètre des microvaisseaux est réalisé en continu.\nLe produit à étudier est administré par voie intra-veineuse."}, "[5]": {"system": "cellules musculaires lisses précapillaires", "assay": "Hamster cheek pouch microcirculation under pentobarbital anaesthesia", "assay_type": "in vivo", "settings": "1-2 mg/100 g par voie intraveineuse; animal anesthésié au pentobarbital (contractions abolished)"}, "[6]": {"system": "cellules endothéliales humaines", "assay": "Proliferation of human endothelial cells cultured in hypoxia", "description": "as §1"}}}
{"smiles": "CN(C)C(=N)NC(=N)N", "note": "[Metformine, N,N-diméthylimidodicarbonimidicdiamide]", "values": [{"measurement": "apparition des néovaisseaux", "setting": "[1]", "result": "inhibe l'apparition des néovaisseaux"}, {"measurement": "apparition d'une néovascularisation", "setting": "[2]", "result": "suppression complète de l'apparition d'une néovascularisation"}, {"measurement": "motricité (capacités motrices de l'animal)", "setting": "[3]", "result": "récupération totale de la motricité"}, {"measurement": "réduction de l'oedème de la patte", "setting": "[3]", "result": 60, "unit": "%"}, {"measurement": "baisse du nombre de métastases", "setting": "métastases pulmonaires", "result": 50, "unit": "%"}, {"measurement": "pénétration de cellules cancéreuses à travers l'endothélium", "setting": "[4]", "result": "inhibe la pénétration de cellules cancéreuses à travers l'endothélium"}, {"measurement": "fréquence de contractions et dilatations des artérioles terminales", "setting": "artérioles terminales", "result": 10, "unit": "par minute"}, {"measurement": "contractions et relaxations rythmiques des cellules musculaires lisses précapillaires", "setting": "[5]", "result": "réapparition des contractions et relaxations rythmiques des cellules musculaires lisses précapillaires"}, {"measurement": "prolifération de cellules endothéliales humaines en hypoxie", "setting": "[6]; concentrations de l'ordre de 10⁻⁷ à 10⁻¹² M, hypoxie", "result": "inhibe fortement cette prolifération"}, {"measurement": "cytotoxicité sur ces cultures cellulaires", "setting": "[6]; cultures de cellules endothéliales humaines", "result": "ne présente pas de cytotoxicité"}]}
